In paper PMC11123956, “Nobiletin Stimulates Adrenal Hormones and Modulates the Circadian Clock in Mice” (Nutrients, 2024) one finds adrenaline secretion data, which are given here for 1 compound.

In the assay the test system is serum adrenaline. The assay can be described thus: Serum adrenaline ELISA after i.p. injection. The settings on record: intraperitoneal injection, 100 mg/kg. Type of assay: in vivo, mice. As for the experimental part: Male C57BL/6J mice (7 weeks old) were purchased from Charles River Japan (Kanagawa, Japan) and used for the serum hormone assay and RT-PCR. Male ICR mice were purchased from Tokyo Laboratory Animals Science Co., Ltd. (Tokyo, Japan), and female PERIOD2::LUCIFERASE (PER2::LUC) knock-in mice (ICR background) bred at Waseda University were used for blood glucose measurements and in vivo imaging assays, respectively. The mice were all housed under conditions of controlled temperature (23 °C ± 3 °C), humidity (50% ± 20%), and lighting (lights on from 07:00 to 19:00 at Taisho Pharmaceutical Co., Ltd. or from 08:00 to 20:00 at Waseda University). In the 24 h cycle, Zeitgeber time 0 (ZT0) was designated as the time when the lights were turned on, and ZT12 was designated as the time when the lights were turned off. […]
Serum corticosterone, adrenaline, and adreno-corticotropic hormone (ACTH) levels, and corticotropin releasing factor (CRF) in the hypothalamus, were measured using enzyme-linked immunosorbent assay (ELISA). […] Blood glucose levels were measured using a Glucose PILOT kit (Aventir Biotech, LLC, Carlsbad, CA, USA). The range of blood glucose that could be precisely measured with the kit was 20–600 mg/dL. […]

Molecules are shown by their SMILES.

Consider `COc1ccc(-c2cc(=O)c3c(OC)c(OC)c(OC)c(OC)c3o2)cc1OC` [nobiletin], for which the adrenaline secretion entry was “significantly and potently stimulated”.
